{"source": "patent US20260240817A1", "about": "“COMPOSITIONS AND METHODS FOR TREATING CHARCOT-MARIE-TOOTH DISEASE” (priority 2023, published 2026)", "key": {"[1]": {"experiment": "Tablet dissolution (USP2 paddles, pH 6.8)", "assay_type": "physicochemical", "conditions": "immediate release film-coated tablets; after a maximum of 60 minutes; USP2 paddles 75 RPM, 37° C., 900 ml pH 6.8"}, "[2]": {"test_system": "mouse model of CMT1A", "experiment": "Stimulated EMG (CMAP decrement) in mouse model of CMT1A", "assay_type": "in vivo", "experimental": "(§1) Male and female mice (Jacson Laboratory Strain #:030052) approx. 6-7 months of age at time of study start were used. These genetically modified mice are used as a disease model to study Charcot Marie Tooth (CMT) disease type 1A (CMT1A).\n(§2) The sodium salt of NMD670 was dissolved in phosphate buffered saline (PBS) to a dose volume of 1 mg/mL. The entire amount of dose-solution was then transferred to a vial labelled A or B (for blinding purposes). The vehicle control solution was PBS and this was transferred to a vial labelled A or B (for blinding purposes). Compound was dosed IP at a volume of 10 mL/kg, from a 1 mg/mL dose solution.\n(§3) NMD670 or vehicle was administered by IP injection at a volume of 10 mL/kg from a 1 mg/mL dose solution while sedated in the EMG measurement set up. 10 to 15 minutes was allowed to elapse before next step was initiated.\n(§4) Each mouse was tested prior to intervention with test article, and then tested after IP injection of 10 mg/kg NMD670 or vehicle (PBS). A washout period was then allowed (48 hours), and the mouse was subjected to the same test, but receiving the opposite treatment to that on the first day. All mice thus received both vehicle and NMD670, in a randomized order (FIG. 6)."}, "[3]": {"test_system": "soleus muscle fibres from CMT2D mice", "experiment": "Intracellular recordings of action potentials during repeated motor nerve stimulation, isolated soleus nerve-muscle preparations", "assay_type": "cell-based, mouse"}, "[4]": {"test_system": "soleus muscle fibres from CMT2D mice", "assay_type": "cell-based, mouse", "conditions": "10 μM NMD670 added to CMT2D fibres, μ-Conotoxin-treated; vs before addition; 12, 30, 80 Hz trains"}, "[5]": {"test_system": "MG patients", "experiment": "Phase 1 FIH study, single doses in MG patients", "assay_type": "in vivo, human", "experimental": "NMD670 has been tested in a Phase 1, FIH, single ascending and multiple ascending dose study in healthy volunteers. […] In addition, the Phase 1 FIH study also tested single doses of 400 mg and 1200 mg in 12 MG patients."}, "[6]": {"test_system": "mouse model of CMT1A", "experiment": "In vivo hind leg force (torque) on sciatic nerve stimulation in mouse model of CMT1A", "experimental": "as §1, §2\n(§5) Animal was sedated (isoflurane inhalation 2% in ambient air) and prepared for assessment of force production from the hind leg, via electrical stimulation of the sciatic nerve in a static position. Stimulation electrodes were inserted at the sciatic nerve, and test pulses of low current amplitude were used to adjust position of all electrodes until a stable reproducible signal was achieved twice. The force resulting from supramaximal electrical stimulation of the supplying motor nerve was recorded from a foot-pad moved by the foot/paw of the animal. See table Table 21 for detailed stimulation protocol.\nas §3\nas §5, with “The animal remained” for “Animal was”, “sedated” for “sedated (isoflurane inhalation 2% in ambient air)”, “See” for “See table”\nas §4"}}, "note": "Entries after “also recorded” stand apart in the source; their conditions may differ."}
{"smiles": "C[C@H](Oc1ccc(Br)cc1-c1ccon1)C(=O)O", "note": "[NMD670, (2S)-2-[4-bromo-2-(1,2-oxazol-3-yl)phenoxy]propanoic acid]", "values": [{"measurement": "NMD670 released from the tablets", "setting": "[1]", "result": "Not less than 80%"}, {"measurement": "CMAP decrement, NMD670 vs vehicle group after treatment", "setting": "[2]; 10 mg/kg IP, n=8", "result": "not significantly different"}, {"measurement": "recovery of CMAP decrement after intervention", "setting": "[2]; 40 Hz, 10 mg/kg IP (sodium salt in PBS), vehicle 8.6", "result": 15.2, "unit": "% point"}, {"measurement": "fibres unable to sustain action potential generation for the entire stimulus train", "setting": "[3]; 12 Hz, after 10 μM NMD670, 3/47 fibres (before 6/60, 10%)", "result": "6,4%"}, {"measurement": "average action potential excitation failure", "setting": "[3]; 12 Hz, after addition of 10 μM NMD670 (before 3.6)", "result": 1.9, "unit": "%"}, {"measurement": "fibres unable to sustain action potential generation for the entire stimulus train", "setting": "[3]; 30 Hz, after 10 μM NMD670, 3/47 fibres (before 9/60, 15%)", "result": 6.4, "unit": "%"}, {"measurement": "average action potential excitation failure", "setting": "[3]; 30 Hz, after addition of 10 μM NMD670 (before 4.9)", "result": 0.8, "unit": "%"}, {"measurement": "fibres unable to sustain action potential generation for the entire stimulus train", "setting": "[3]; 80 Hz, after 10 μM NMD670, 20/47 fibres (before 33/60, 55%)", "result": 42.5, "unit": "%"}, {"measurement": "average action potential excitation failure", "setting": "[3]; 80 Hz, after addition of 10 μM NMD670 (before 29.6)", "result": 20.4, "unit": "%"}, {"measurement": "EPP amplitude", "setting": "[4]", "result": "significant increase; also recorded: small non-significant increase"}, {"measurement": "myotonia", "setting": "[5]; patients with MG, single doses of 400 mg and 1200 mg", "result": "not observed"}, {"measurement": "symptoms of MG", "setting": "[5]; single dose of 400 mg", "result": "statistically significant and clinically relevant improvements of symptoms"}, {"measurement": "ability to sustain force during stimulated contraction", "setting": "[6]; 10 mg/kg IP, compared to Vehicle", "result": "markedly improved"}, {"measurement": "stimulated force", "setting": "[6]; 10 mg/kg intra peritoneally, compared to vehicle treatment", "result": "significantly increase"}, {"measurement": "Change in Torque (peak stimulated force, before to after treatment)", "setting": "[6]; 1 Hz, 10 mg/kg IP, vehicle −0.37", "result": 0.95, "unit": "mN*m"}, {"measurement": "Change in Torque (peak stimulated force, before to after treatment)", "setting": "[6]; 15 Hz, 10 mg/kg IP, vehicle −0.46", "result": 0.59, "unit": "mN*m"}, {"measurement": "Change in Torque (peak stimulated force, before to after treatment)", "setting": "[6]; 30 Hz, 10 mg/kg IP, vehicle −0.95", "result": 0.49, "unit": "mN*m"}, {"measurement": "increase of peak muscle force", "setting": "[6]; 60 Hz, 10 mg/kg IP", "result": 1.13, "unit": "mNm"}, {"measurement": "Change in Torque (peak stimulated force, before to after treatment)", "setting": "[6]; 60 Hz, 10 mg/kg IP, vehicle −1.49", "result": 1.13, "unit": "mN*m"}, {"measurement": "Change in Fade (before to after treatment)", "setting": "[6]; 60 Hz, 10 mg/kg IP, vehicle −1.5", "result": 2.2, "unit": "%"}, {"measurement": "increase of peak muscle force", "setting": "[6]; 120 Hz, 10 mg/kg IP", "result": 1.67, "unit": "mNm"}, {"measurement": "Change in Torque (peak stimulated force, before to after treatment)", "setting": "[6]; 120 Hz, 10 mg/kg IP, vehicle −1.36", "result": 1.67, "unit": "mN*m"}, {"measurement": "Change in Fade (before to after treatment)", "setting": "[6]; 120 Hz, 10 mg/kg IP, vehicle −14.1", "result": 8.1, "unit": "%"}, {"measurement": "improvement of ability to sustain force", "setting": "[6]; 200 Hz, 10 mg/kg IP", "result": 18.3, "unit": "% point"}, {"measurement": "Change in Torque (peak stimulated force, before to after treatment)", "setting": "[6]; 200 Hz, 10 mg/kg IP, vehicle −1.42", "result": 1.90, "unit": "mN*m"}, {"measurement": "Change in Fade (before to after treatment)", "setting": "[6]; 200 Hz, 10 mg/kg IP, vehicle −24.1", "result": 18.3, "unit": "%"}]}
